These results are taken from patent US12673975B2, “Cyclic peptide, cell scaffold material, cell separating material, and medium” (FUJIFILM Corporation, priority 2019, dated 2026).

A short description of series [1]: Evaluation of molecule stability (alkali treatment, residual rate by LC/MS). Type of series: physicochemical. Particulars: 500 μM peptide aqueous solution plus equivalent of 1 M sodium hydroxide, 15° C., 3 hours, LC/MS peak area. The method, then:
The molecule stability of the cyclic peptide was evaluated by analyzing the alkali-treated cyclic peptide aqueous solution by liquid chromatography mass spectroscopy (LC/MS).
The alkali treatment was carried out by the following method. A 500 μM cyclic peptide aqueous solution was prepared, an equivalent of 1 M sodium hydroxide aqueous solution was added to this aqueous solution, and the resultant mixture was incubated at 15° C. for 3 hours to obtain an alkali-treated cyclic peptide aqueous solution. The cyclic peptide residual rate was calculated by setting the total area of all peaks of the cyclic peptide before alkali treatment in LC/MS to 100% and determining the proportion of the total area of all peaks in LC/MS of the alkali-treated cyclic peptide aqueous solution, and the molecule stability was evaluated according to the following evaluation standards. It is preferable that the evaluation result satisfies the evaluation standard A, B, or C.
The conditions of the LC/MS used for the evaluation of molecule stability were set as follows. • LC apparatus: Prominence series (pump, column oven, autosampler, detector) (manufactured by Shimadzu Corporation) • MS detector: LC/MS2010EV (manufactured by Shimadzu Corporation) • Column: Cadenza CD-C18, inner diameter 2.0 mm×length 250 mm, particle size: 3 μm (manufactured by Imtakt Corporation) • Eluent A: a solution (pH 3) containing 10 mM ammonium formate as a solute, where the solvent is 100% water. • Eluent B: a solution (pH 3) containing 10 mM ammonium formate as a solute, where the solvent is acetonitrile/water=90/10. • Flow rate: 0.2 mL/min • Injection volume: 4 μL • Gradient: 0% to 30%: Eluent B (0 to 30 minutes), 100%: Eluent B (30 to 40 minutes), 0%: Eluent B (40 to 60 minutes) • Column temperature: 45° C. • Ionization method: electrospray ionization (ESI) positive, ESI negative

The target of another series is human integrin αvβ5 (Homo sapiens, UniProt P06756+P18084). Description: Evaluation of integrin binding property (surface plasmon resonance, Biacore 3000, immobilized cyclic peptide). On the procedure:
A commercially available CMS (a carboxymethyl dextran introduction type, manufactured by GE Healthcare) sensor chip was set in Biacore 3000, which is a surface plasmon resonance apparatus manufactured by GE Healthcare, the sensor was stabilized at a flow rate of 10 μL/min of a HEPES (4-(2-hydroxyethyl)-1-piperazineethanesulfonic acid) buffer solution (20 mM HEPES-HCl, 150 mM NaCl, pH 7.4) for surface plasmon resonance (SPR), and 70 μL of a mixed aqueous solution of 0.2 M 1-(3-dimethylaminopropyl)-3-ethylcarbodiimide (EDC) and 0.04 M N-hydroxysuccinimide (NHS) was added thereto. Here, the concentration unit M represents mol/L, and the same applies hereinafter. Then, 20 μL of the sample solution of each of the above cyclic peptides diluted to 0.2 g/L with the HEPES buffer solution was supplied to the sensor chip, blocking treatment was subsequently carried out with an ethanolamine solution, and washing was carried out with a sodium hydroxide aqueous solution, whereby immobilization was carried out. However, only for the cyclic peptides 125, 126, and 127, in which the number of lysine residues having an amino group as the immobilizing functional group was zero, the amount of the sample solution to be supplied to the sensor chip was set to 500 μL instead of 20 μL. Further, 70 μL of the mixed aqueous solution of 0.2 M EDC and 0.04 M NHS was added to another flow channel of the same sensor chip without immobilizing the sample, and then blocking treatment and washing treatment were carried out. Hereinafter, the obtained immobilization-treated sensor chip is referred to as an “immobilization-treated sensor chip A”.
After adding human integrin αvβ5 for 10 minutes at 25° C., which was diluted to 30 nM using a HEPES buffer solution to which magnesium chloride was added to 5 mM, in each flow channel of the immobilization-treated sensor chip A prepared in (1) above, the same HEPES buffer solution (containing 5 mM magnesium chloride) was allowed to flow as a running buffer for 30 minutes, and measurement was carried out with Biacore 3000. Then, a regeneration treatment of removing human integrin αvβ5 was carried out by allowing a 0.5 M EDTA aqueous solution to flow through each flow channel for 10 minutes. Further, the above-described measurement process consisting of adding integrin for 10 minutes, allowing a running buffer to flow for 30 minutes, carrying out measurement with Biacore 3000, and carrying out regeneration treatment with 0.5 M EDTA aqueous solution was carried out in the same manner for 100 nM human integrin αvβ5, 300 nM human integrin αvβ5, and 1,000 nM human integrin αvβ5. Dissociation constant between the cyclic peptide and human integrin αvβ5 was calculated from the difference between the value measured by Biacore 3000 in the flow channel immobilized with the cyclic peptide and the value measured by Biacore 3000 in the flow channel unimmobilized with the cyclic peptide, in a case where each concentration of human integrin αvβ5 was allowed to flow, and the integrin binding property was evaluated according to the following evaluation standards. It is preferable that the evaluation result satisfies the evaluation standard A, B, or C.
(Surface plasmon resonance follows binding to a sensor surface in real time, without labels.)

Setting [2] is: SPR, 25° C., HEPES buffer with 5 mM magnesium chloride, integrin 30-1,000 nM, read-out: Performance evaluation: Binding activity (dissociation constant between the cyclic peptide and human integrin αvβ5).

Where two headings read alike, the source gives them in different places. Starred links: 1 amine or outer side, 2 acyl side, 3 side chain; linkers in the order of their positions; H or OH if unused. Positions of bridges follow the written chain, without caps; N, C: chain ends. Non-standard residues stand in square brackets, D forms with d. Residues, ends and D or L forms follow the SMILES beside them. hCys = N[C@@H](CCS)C(=O)O; Dab = NCC[C@H](N)C(=O)O; Dap = NC[C@H](N)C(=O)O; X1 = O=C(C[*:2])[*:1]; X2 = O=C(C[*:1])[*:2]

Chain of human integrin αvβ5 (P06756 31-1048): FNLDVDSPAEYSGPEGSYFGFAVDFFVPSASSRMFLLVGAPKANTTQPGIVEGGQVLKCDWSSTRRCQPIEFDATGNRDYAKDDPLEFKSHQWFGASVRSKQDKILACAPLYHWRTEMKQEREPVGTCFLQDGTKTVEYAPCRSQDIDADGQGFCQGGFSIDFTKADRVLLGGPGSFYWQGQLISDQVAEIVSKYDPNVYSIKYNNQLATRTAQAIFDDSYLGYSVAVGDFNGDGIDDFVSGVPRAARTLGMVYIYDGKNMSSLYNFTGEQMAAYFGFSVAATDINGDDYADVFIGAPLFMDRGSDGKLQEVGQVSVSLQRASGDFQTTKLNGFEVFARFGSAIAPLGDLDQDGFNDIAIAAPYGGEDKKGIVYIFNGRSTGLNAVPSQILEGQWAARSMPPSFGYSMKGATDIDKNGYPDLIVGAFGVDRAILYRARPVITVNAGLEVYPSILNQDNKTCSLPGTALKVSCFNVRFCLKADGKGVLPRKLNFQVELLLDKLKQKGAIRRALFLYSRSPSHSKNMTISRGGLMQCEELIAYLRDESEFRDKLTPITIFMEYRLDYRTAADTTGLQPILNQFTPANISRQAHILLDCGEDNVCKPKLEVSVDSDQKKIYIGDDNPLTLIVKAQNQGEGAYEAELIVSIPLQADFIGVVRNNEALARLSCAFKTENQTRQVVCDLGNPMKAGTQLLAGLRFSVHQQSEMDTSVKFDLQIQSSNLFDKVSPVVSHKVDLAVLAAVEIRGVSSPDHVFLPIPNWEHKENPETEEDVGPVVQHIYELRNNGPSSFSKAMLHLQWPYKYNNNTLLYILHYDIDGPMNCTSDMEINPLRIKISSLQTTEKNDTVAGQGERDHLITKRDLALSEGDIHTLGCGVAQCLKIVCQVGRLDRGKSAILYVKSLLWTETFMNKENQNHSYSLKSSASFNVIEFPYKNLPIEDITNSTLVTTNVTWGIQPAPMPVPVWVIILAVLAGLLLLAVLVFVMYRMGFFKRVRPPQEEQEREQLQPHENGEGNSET
Chain of human integrin αvβ5 (P18084 24-799): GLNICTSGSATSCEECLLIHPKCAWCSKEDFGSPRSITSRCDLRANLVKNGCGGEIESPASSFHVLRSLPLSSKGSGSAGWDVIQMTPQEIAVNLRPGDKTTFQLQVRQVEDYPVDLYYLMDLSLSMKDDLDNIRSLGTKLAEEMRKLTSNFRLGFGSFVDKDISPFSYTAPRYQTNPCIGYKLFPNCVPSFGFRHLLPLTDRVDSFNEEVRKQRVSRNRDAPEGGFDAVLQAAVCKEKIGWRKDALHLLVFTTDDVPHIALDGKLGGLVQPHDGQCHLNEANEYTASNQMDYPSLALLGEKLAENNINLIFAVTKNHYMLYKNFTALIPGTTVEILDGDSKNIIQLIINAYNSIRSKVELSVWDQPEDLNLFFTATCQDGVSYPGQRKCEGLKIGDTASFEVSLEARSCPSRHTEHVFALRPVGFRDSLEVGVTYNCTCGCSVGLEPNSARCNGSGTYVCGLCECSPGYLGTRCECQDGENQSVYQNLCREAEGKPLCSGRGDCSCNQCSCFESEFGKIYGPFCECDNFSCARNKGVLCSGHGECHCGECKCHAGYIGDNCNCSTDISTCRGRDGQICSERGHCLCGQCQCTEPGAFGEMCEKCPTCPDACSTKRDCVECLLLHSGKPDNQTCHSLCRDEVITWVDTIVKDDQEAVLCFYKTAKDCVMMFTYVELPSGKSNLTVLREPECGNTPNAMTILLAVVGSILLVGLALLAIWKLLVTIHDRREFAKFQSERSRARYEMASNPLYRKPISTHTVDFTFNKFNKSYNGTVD

Consider `C[C@H](NC(=O)[C@@H]1CCNC(=O)CSCC[C@H](NC(=O)CNC(=O)[C@H](CCCCN)NC(=O)[C@H](CCCCN)NC(=O)[C@@H](N)CCCCN)C(=O)N2CCC[C@H]2C(=O)N[C@@H](CCCNC(=N)N)C(=O)NCC(=O)N[C@@H](CC(=O)O)C(=O)N[C@@H](CC(N)=O)C(=O)N[C@@H](Cc2ccccc2)C(=O)N[C@@H](CCCNC(=N)N)C(=O)N1)C(=O)O` [Cyclic peptide 8, KKKG-(Hcy)-PRGDNFR(Dab(acetyl))A] (H-KKKG[hCys]PRGDNFR[Dab]A-OH; linker 5-13 via X2), for which the “Performance evaluation: Stability (residual rate of cyclic peptide after alkali treatment)” value in series [1] is “A (The residual rate of the cyclic peptide is 70% or more.)”. In addition, the Kd at human integrin αvβ5 (setting [2]) was in the range of 50 to 100 nM.

With `C[C@H](NC(=O)[C@@H]1CCNC(=O)CSCC[C@H](NC(=O)[C@H](CCCCN)NC(=O)[C@H](CCCCN)NC(=O)[C@@H](N)CCCCN)C(=O)N2CCC[C@H]2C(=O)N[C@@H](CCCNC(=N)N)C(=O)NCC(=O)N[C@@H](CC(=O)O)C(=O)N[C@@H](CC(N)=O)C(=O)N[C@@H](Cc2ccccc2)C(=O)N[C@@H](CCCNC(=N)N)C(=O)N1)C(=O)O` [Cyclic peptide 9, KKK-(Hcy)-PRGDNFR(Dab(acetyl))A] (H-KKK[hCys]PRGDNFR[Dab]A-OH; linker 4-12 via X2), the “Performance evaluation: Stability (residual rate of cyclic peptide after alkali treatment)” value in series [1] was “A (The residual rate of the cyclic peptide is 70% or more.)”. In addition, on human integrin αvβ5 (setting [2]), the Kd fell in the range of 100 to 200 nM.

Consider `CC[C@H](C)[C@@H]1NC(=O)[C@@H](NC(=O)[C@H](CCCCN)NC(=O)[C@H](CCCCN)NC(=O)[C@@H](N)CCCCN)CCSCC(=O)NCC[C@@H](C(=O)N[C@@H](C)C(=O)O)NC(=O)[C@H](Cc2ccccc2)NC(=O)[C@H](CC(N)=O)NC(=O)[C@H](CC(=O)O)NC(=O)CNC(=O)[C@H](CCCNC(=N)N)NC(=O)[C@@H]2CCCN2C1=O` [Cyclic peptide 10, KKK-(Hcy)-IPRGDNF(Dab(acetyl))A] (H-KKK[hCys]IPRGDNF[Dab]A-OH; linker 4-12 via X2), for which the “Performance evaluation: Stability (residual rate of cyclic peptide after alkali treatment)” value in series [1] was “A (The residual rate of the cyclic peptide is 70% or more.)”. Also, the Kd at human integrin αvβ5 (setting [2]) was in the range of 50 to 100 nM.

On to `CC[C@H](C)[C@@H]1NC(=O)[C@@H](NC(=O)[C@H](CCCCN)NC(=O)[C@H](CCCCN)NC(=O)[C@@H](N)CCCCN)CCSCC(=O)NCC[C@@H](C(=O)O)NC(=O)[C@H](CCCNC(=N)N)NC(=O)[C@H](Cc2ccccc2)NC(=O)[C@H](CC(N)=O)NC(=O)[C@H](CC(=O)O)NC(=O)CNC(=O)[C@H](CCCNC(=N)N)NC(=O)[C@@H]2CCCN2C1=O` [Cyclic peptide 11, KKK-(Hcy)-IPRGDNFR(Dab(acetyl))] (H-KKK[hCys]IPRGDNFR[Dab]-OH; linker 4-13 via X2), for which, in series [1], the “Performance evaluation: Stability (residual rate of cyclic peptide after alkali treatment)” value is “A (The residual rate of the cyclic peptide is 70% or more.)”. Moreover, on human integrin αvβ5 (setting [2]), the Kd is under 50 nM.

For `CC[C@H](C)[C@@H]1NC(=O)[C@@H](NC(=O)[C@H](CCCCN)NC(=O)[C@H](CCCCN)NC(=O)[C@@H](N)CCCCN)CNC(=O)CSCC[C@@H](C(=O)O)NC(=O)[C@H](CCCNC(=N)N)NC(=O)[C@H](Cc2ccccc2)NC(=O)[C@H](CC(N)=O)NC(=O)[C@H](CC(=O)O)NC(=O)CNC(=O)[C@H](CCCNC(=N)N)NC(=O)[C@@H]2CCCN2C1=O` [Cyclic peptide 12, KKK(Dap(acetyl))IPRGDNFR-(Hcy)] (H-KKK[Dap]IPRGDNFR[hCys]-OH; linker 4-13 via X1), the “Performance evaluation: Stability (residual rate of cyclic peptide after alkali treatment)” value in series [1] was “B (The residual rate of the cyclic peptide is 50% or more and less than 70%.)”. Besides, the Kd at human integrin αvβ5 (setting [2]) was 50 to 100 nM.

Consider `CC[C@H](C)[C@@H]1NC(=O)[C@@H](NC(=O)[C@H](CCCCN)NC(=O)[C@H](CCCCN)NC(=O)[C@@H](N)CCCCN)CCSCC(=O)NCC[C@@H](C(=O)O)NC(=O)[C@H](Cc2ccccc2)NC(=O)[C@H](CC(N)=O)NC(=O)[C@H](CC(=O)O)NC(=O)CNC(=O)[C@H](CCCNC(=N)N)NC(=O)[C@@H]2CCCN2C1=O` [Cyclic peptide 13, KKK-(Hcy)-IPRGDNF(Dab(acetyl))] (H-KKK[hCys]IPRGDNF[Dab]-OH; linker 4-12 via X2), for which, in series [1], the “Performance evaluation: Stability (residual rate of cyclic peptide after alkali treatment)” value is listed as “A (The residual rate of the cyclic peptide is 70% or more.)”. For the same compound, the Kd at human integrin αvβ5 (setting [2]) was under 50 nM.

In the case of `CC(C)[C@@H]1NC(=O)[C@@H](NC(=O)[C@H](CCCCN)NC(=O)[C@H](CCCCN)NC(=O)[C@@H](N)CCCCN)CCSCC(=O)NCC[C@@H](C(=O)O)NC(=O)[C@H](Cc2ccccc2)NC(=O)[C@H](CC(N)=O)NC(=O)[C@H](CC(=O)O)NC(=O)CNC(=O)[C@H](CCCNC(=N)N)NC(=O)[C@@H]2CCCN2C1=O` [Cyclic peptide 14, KKK-(Hcy)-VPRGDNF(Dab(acetyl))] (H-KKK[hCys]VPRGDNF[Dab]-OH; linker 4-12 via X2), in series [1], the “Performance evaluation: Stability (residual rate of cyclic peptide after alkali treatment)” value is “A (The residual rate of the cyclic peptide is 70% or more.)”. Moreover, on human integrin αvβ5, the Kd is under 50 nM.

Consider `CC[C@H](C)[C@@H]1NC(=O)[C@H](C)NC(=O)[C@@H](NC(=O)[C@H](CCCCN)NC(=O)[C@H](CCCCN)NC(=O)[C@@H](N)CCCCN)CCSCC(=O)NCC[C@@H](C(=O)N[C@@H](C)C(=O)O)NC(=O)[C@H](CCCNC(=N)N)NC(=O)[C@H](Cc2ccccc2)NC(=O)[C@H](CC(N)=O)NC(=O)[C@H](CC(=O)O)NC(=O)CNC(=O)[C@H](CCCNC(=N)N)NC(=O)[C@@H]2CCCN2C1=O` [Cyclic peptide 15, KKK-(Hcy)-AIPRGDNFR(Dab(acetyl))A] (H-KKK[hCys]AIPRGDNFR[Dab]A-OH; linker 4-14 via X2), for which, in series [1], the “Performance evaluation: Stability (residual rate of cyclic peptide after alkali treatment)” value is recorded as “A (The residual rate of the cyclic peptide is 70% or more.)”. Also, on human integrin αvβ5 (setting [2]), the Kd fell in the range of 50 to 100 nM.

For the compound `CC[C@H](C)[C@@H]1NC(=O)[C@@H](NC(=O)[C@H](CCCCN)NC(=O)[C@H](CCCCN)NC(=O)[C@@H](N)CCCCN)CCSCC(=O)NCC[C@@H](C(=O)N[C@@H](C)C(=O)O)NC(=O)[C@H](C)NC(=O)[C@H](CCCNC(=N)N)NC(=O)[C@H](Cc2ccccc2)NC(=O)[C@H](CC(N)=O)NC(=O)[C@H](CC(=O)O)NC(=O)CNC(=O)[C@H](CCCNC(=N)N)NC(=O)[C@@H]2CCCN2C1=O` [Cyclic peptide 16, KKK-(Hcy)-IPRGDNFRA(Dab(acetyl))A] (H-KKK[hCys]IPRGDNFRA[Dab]A-OH; linker 4-14 via X2), in series [1], the “Performance evaluation: Stability (residual rate of cyclic peptide after alkali treatment)” value is recorded as “A (The residual rate of the cyclic peptide is 70% or more.)”. For the same compound, the Kd at human integrin αvβ5 (setting [2]) is 50 to 100 nM.
